Measurements published in PMC4601023, “Novel anticancer agent, SQAP, binds to focal adhesion kinase and modulates its activity” (Scientific Reports, 2015).

Key:
[1] = tested on: FAK phosphorylation (Y397, Y925) in A549 cells; assay: FAK phosphorylation level in A549, Western blotting; format: cell-based, human; conditions: A549, fibronectin 10 μg/mL, 1 h treatment
Protocol: A549 cells were incubated in a serum-free medium for 48 h in 60 mm dishes (IWAKI, Tokyo, Japan). Then 10 μM SQAP, SQMG or SQP was added and incubated for 30 min followed by addition of fibronectin 10 μg/mL (Sigma, St. Louis, MI, USA) and incubation for another 30 min. FAK phosphorylation level was analyzed by Western blotting as described in the next section.
Cells were harvested and solubilized in RIPA buffer (20 mM Tris-HCl, pH 7.5, 1% Sodium deoxycholate, 150 mM NaCl, 5 mM EDTA, 1% Triton X-100, 0.1% SDS, 0.1%, 1 mM PMSF, 1 mM vanadate and 1 μg/mL leupeptin). Protein quantification was determined using the DC protein assay kit (Bio-Rad, Hercules, CA, USA). A total of 15 μg of each protein sample were separated by SDS–PAGE gels and blotted onto polyvinylidene difluoride membranes (Merck, Kenilworth, NJ, US). After blocking for 1 h with Blocking-One (Nacalai Tesque, Kyoto, Japan), proteins were detected by incubating the membranes with the primary antibody at 4 °C overnight (anti-Y397 2:2000, anti-Y925 5:2000 and anti-FAK 0.5:2000) followed by incubation with horseradish peroxidase-conjugated secondary antibodies at room temperature for 1 h (anti-mouse 0.5:2000 and anti-rabbit 0.4:2000).

[2] = tested on: VEGF mRNA expression in A549 cells; assay: VEGF mRNA expression, quantitative real-time RT-PCR, A549; format: cell-based, human; conditions: A549, 6 h, increased concentration of SQAP
Protocol: Figure 5 Effect of SQAP on FAK phosphorylation. The level of FAK phosphorylated at Y397 and Y925 was evaluated by Western blotting. (A) HUVEC cells were serum-depleted for 20 h before treatment with SQAP or vehicle for 30 min followed by treatment with or without VEGF (50 ng/mL) for 30 min. (B) HUVEC cells were cultured as stated in section A and then treated with SQAP, SQMG or SQP. (C) A549 cells were serum-deprived for 48 h before pretreatment with SQAP or vehicle followed by treatment with or without fibronectin (10 μg/mL) for 30 min. (D) A549 cells were cultured as stated in section C and then treated with SQAP, SQMG or SQP. (E–F) HUVEC and A549 cells were treated with SQAP for 6 h before adding an RNA stabilization reagent and prepared for Quantitative real-time RT-PCR.
Total RNA was prepared using an RNeasy Mini Kit (QIAGEN Inc., Hilden, Germany) according to the manufacturer’s instructions and then reverse-transcribed to cDNA with Transcriptor First Strand cDNA Synthesis Kit (Roche Applied Science, Mnnheim, Germany). Measurement of gene expression by quantitative analysis was performed using the LightCycler system (Roche Applied Science). Quantitative real-time RT-PCR analysis of β-actin, TSP-1 and VEGF-A expression were performed using the LightCycler FastStart DNA MasterPLUS SYBR Green I system (Roche Applied Science). […]

[3] = target: T1, SCP-2 (400–547) (Homo sapiens, UniProt P22307); assay: SPR analysis, immobilized His-tagged SCP-2 (400-547); format: binding; conditions: Biacore 3000, CM5 chip, 25 °C, read-out: dissociation constant (KD) for SCP-2
T1 construct: DNA encoding SCP-2 (400–547) was amplified; made in house; host or cells: E. coli Rosetta 2 (DE3) pLysS
From the text: SPR was utilized as an independent confirmation of the kinetic parameters between SQAP and the putative binding proteins. […] The recombinant proteins were then expressed in Escherichia coli and purified to homogeneity. In addition, full length, His-tagged ADRM1 and GST-tagged HR23B (GST-HR23B) were also used. The proteins were first immobilized on a CM5 sensor chip of the SPR biosensor (Biacore 3000). For GST-HR23B analysis, a GST protein was additionally immobilized and used as a control in order to eliminate possible nonspecific binding of SQAP. SQAP samples at different concentrations were then injected over the proteins immobilized on the sensor chip. As a negative control we used sulfoquynovosylpropanediol (SQP), which lacks the fatty acid moiety of SQAP (Fig. 1). […]
The binding kinetics of SCP-2, MFE-2, ADRM1, HR23B and FAK with SQAP and SQP were analyzed on a Biacore 3000 instrument (GE Healthcare, Little Chalfont, UK). […] The buffer of purified peptides was exchanged to HBS-P (150 mM NaCl, 0.005% Surfactant P20, 10 mM HEPES-NaOH pH 7.4) using a PD 10 column (GE Healthcare, Little Chalfont, UK) and the concentrations were quantified using DC protein assay kit (Bio-Rad Laboratories, Hercules, CA, USA). […] Kinetic parameters were determined by analyzing the data using BIAevaluation 4.1 software (GE Healthcare, Little Chalfont, UK).

T1 sequence (P22307 400-547): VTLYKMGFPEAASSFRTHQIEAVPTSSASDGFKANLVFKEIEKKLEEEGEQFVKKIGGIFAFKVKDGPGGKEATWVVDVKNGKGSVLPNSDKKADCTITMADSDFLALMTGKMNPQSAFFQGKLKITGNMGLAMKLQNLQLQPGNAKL

## CCCCCCCCCCCCCCCCCC(=O)OCCCO[C@H]1O[C@H](CS(=O)(=O)O)[C@@H](O)[C@H](O)[C@H]1O [SQAP, sulfoquynovosylacylpropanediol]
[1]
  phosphorylation of FAK at Y397 and Y925: could inhibit
[2]
  VEGF production level (mRNA, RT-PCR): mild production decrease
[3]
  Kd: 15.6 µM
